#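 Results reflect a 48-hour exposure of cells in 96-well plates to compound at five concentrations. Abbreviation: GI50, concentration required for 50% inhibition of growth.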 Active and inactive are the calls of the source. Cut-off read from the data, not from the text of the source: active = GI50 up to about 1.1 µM and inactive = higher.
# Columns and labels:
# Test in all cases: DTP human tumour cell line panel, 48 h
# [1] = system: M14
# [2] = system: SR
# [3] = system: ACHN
# [4] = system: COLO 205
# [5] = system: HT-29
# [6] = system: U-251
# [7] = system: UACC-62
# [8] = system: SK-OV-3
# [9] = system: NCI-H226
# [10] = system: HCT-116
# [11] = system: A549
# [12] = system: Hs-578T
# [13] = system: SNB-19
# [14] = system: IGROV-1
# [15] = system: SW-620
# [16] = system: A498
# [17] = system: SF-539
# [18] = system: MDA-MB-435
# [19] = system: MOLT-4
# [20] = system: K562
Compound,GI50 [1],GI50 [2],GI50 [3],GI50 [4],GI50 [5],GI50 [6],GI50 [7],GI50 [8],GI50 [9],GI50 [10],GI50 [11],GI50 [12],GI50 [13],GI50 [14],GI50 [15],GI50 [16],GI50 [17],GI50 [18],GI50 [19],GI50 [20]
COC1=CC(=O)C(C2CC(=O)c3c(O)cc(O)cc3O2)=CC1=O (stereo not given),17.7 µM (inactive),5.74 µM (inactive),15.9 µM (inactive),17.9 µM (inactive),> 45.1 µM (inactive),18.5 µM (inactive),16.4 µM (inactive),36.8 µM (inactive),19.4 µM (inactive),16.1 µM (inactive),39.9 µM (inactive),33.5 µM (inactive),25 µM (inactive),19.1 µM (inactive),20.2 µM (inactive),29.9 µM (inactive),20.7 µM (inactive),16.2 µM (inactive),1.96 µM (inactive),5.86 µM (inactive)
c1ncc(C23C4C5C6C4C2C6C53)[nH]1 (stereo not given),> 100 µM (inactive),> 100 µM (inactive),> 100 µM (inactive),> 100 µM (inactive),> 100 µM (inactive),> 100 µM (inactive),> 100 µM (inactive),> 100 µM (inactive),> 100 µM (inactive),> 100 µM (inactive),> 100 µM (inactive),> 100 µM (inactive),> 100 µM (inactive),> 100 µM (inactive),> 100 µM (inactive),> 100 µM (inactive),> 100 µM (inactive),> 100 µM (inactive),> 100 µM (inactive),> 100 µM (inactive)
Nc1ccc(Oc2ccc(C3(c4ccc(Oc5ccc(N)c(O)c5)cc4)C4CC5CC(C4)CC3C5)cc2)cc1O,1.71 µM (inactive),1.17 µM (inactive),1.82 µM (inactive),0.484 µM (active),1.64 µM (inactive),1.7 µM (inactive),2.69 µM (inactive),2.45 µM (inactive),1.83 µM (inactive),1.5 µM (inactive),1.81 µM (inactive),2.24 µM (inactive),2.4 µM (inactive),1.75 µM (inactive),1.77 µM (inactive),5.74 µM (inactive),1.12 µM (active),2.02 µM (inactive),1.66 µM (inactive),2.04 µM (inactive)
CC1CCC2(CC1)N=C1CCC(C)CC1C1(CCC(C)CC1)N2 (stereo not given),> 100 µM (inactive),50.8 µM (inactive),> 100 µM (inactive),> 100 µM (inactive),86.7 µM (inactive),78.7 µM (inactive),> 100 µM (inactive),> 100 µM (inactive),> 100 µM (inactive),36 µM (inactive),> 100 µM (inactive),> 100 µM (inactive),> 100 µM (inactive),> 100 µM (inactive),79.3 µM (inactive),> 100 µM (inactive),> 100 µM (inactive),> 100 µM (inactive),25.9 µM (inactive),30.4 µM (inactive)
COc1ccc(-c2c(-c3ccccc3)c(C)c3ccccn23)cc1,> 100 µM (inactive),26.4 µM (inactive),> 100 µM (inactive),80.4 µM (inactive),33.4 µM (inactive),> 100 µM (inactive),> 100 µM (inactive),> 100 µM (inactive),> 100 µM (inactive),72.3 µM (inactive),87.3 µM (inactive),> 100 µM (inactive),> 100 µM (inactive),> 100 µM (inactive),58.9 µM (inactive),> 100 µM (inactive),> 100 µM (inactive),52.2 µM (inactive),59.6 µM (inactive),50 µM (inactive)
CCOC(=O)c1ccc(NCC#CCN2CCCCC2)cc1,59.2 µM (inactive),> 100 µM (inactive),57.5 µM (inactive),41.9 µM (inactive),> 100 µM (inactive),> 100 µM (inactive),50.1 µM (inactive),> 100 µM (inactive),> 100 µM (inactive),96.8 µM (inactive),> 100 µM (inactive),> 100 µM (inactive),> 100 µM (inactive),> 100 µM (inactive),> 100 µM (inactive),> 100 µM (inactive),> 100 µM (inactive),> 100 µM (inactive),> 100 µM (inactive),26.8 µM (inactive)
O=[N+]([O-])C1=Cc2c(O)ccc(O)c2C2OC=CC12 (stereo not given),18 µM (inactive),23 µM (inactive),14.8 µM (inactive),27 µM (inactive),19.6 µM (inactive),16.1 µM (inactive),6.81 µM (inactive),> 60.4 µM (inactive),30.7 µM (inactive),15.9 µM (inactive),21 µM (inactive),29.2 µM (inactive),23.9 µM (inactive),19.4 µM (inactive),30 µM (inactive),15.7 µM (inactive),22.2 µM (inactive),2.4 µM (inactive),3.6 µM (inactive),9.44 µM (inactive)
CCOC(=O)c1nc2cc(Cl)ccc2[nH]c1=O,> 100 µM (inactive),> 100 µM (inactive),> 100 µM (inactive),> 100 µM (inactive),> 100 µM (inactive),> 100 µM (inactive),> 100 µM (inactive),> 100 µM (inactive),> 100 µM (inactive),> 100 µM (inactive),> 100 µM (inactive),> 100 µM (inactive),> 100 µM (inactive),> 100 µM (inactive),> 100 µM (inactive),> 100 µM (inactive),> 100 µM (inactive),> 100 µM (inactive),> 100 µM (inactive),> 100 µM (inactive)
CC(C(=O)n1ccnc1)N1c2ccccc2Sc2ccccc21 (stereo not given),77.3 µM (inactive),50.1 µM (inactive),83.2 µM (inactive),79.3 µM (inactive),90.4 µM (inactive),64.4 µM (inactive),> 100 µM (inactive),97.7 µM (inactive),61.9 µM (inactive),> 100 µM (inactive),> 100 µM (inactive),> 100 µM (inactive),> 100 µM (inactive),> 100 µM (inactive),> 100 µM (inactive),47.2 µM (inactive),> 100 µM (inactive),> 100 µM (inactive),43 µM (inactive),91.2 µM (inactive)
CCOC(=O)CCC(NC(=O)c1ccc(OCc2nc3ccccc3n3cccc23)cc1)C(=O)OCC (stereo not given),63.2 µM (inactive),9.62 µM (inactive),54.5 µM (inactive),> 100 µM (inactive),25.5 µM (inactive),17.3 µM (inactive),> 100 µM (inactive),> 100 µM (inactive),> 100 µM (inactive),36.3 µM (inactive),> 100 µM (inactive),64.4 µM (inactive),55.5 µM (inactive),31.6 µM (inactive),11.6 µM (inactive),> 100 µM (inactive),46.8 µM (inactive),80.4 µM (inactive),1.65 µM (inactive),16.5 µM (inactive)
COc1cc2c(cc1OC)C(=O)C1(C2)[C@H](c2ccccc2)C2C(=O)c3cc(OC)c(OC)cc3C2[C@H]1c1ccccc1 (stereo not given in full),> 100 µM (inactive),> 100 µM (inactive),25.8 µM (inactive),> 100 µM (inactive),> 100 µM (inactive),> 100 µM (inactive),> 100 µM (inactive),> 100 µM (inactive),> 100 µM (inactive),> 100 µM (inactive),31 µM (inactive),> 100 µM (inactive),> 100 µM (inactive),> 100 µM (inactive),> 100 µM (inactive),> 100 µM (inactive),> 100 µM (inactive),> 100 µM (inactive),> 100 µM (inactive),> 100 µM (inactive)
CC(NNC(=O)c1cc[n+]([BH2-]C#N)cc1)c1ccc(Cl)c(Cl)c1 (stereo not given),38.1 µM (inactive),36 µM (inactive),24.3 µM (inactive),18.9 µM (inactive),17.5 µM (inactive),40.2 µM (inactive),29.7 µM (inactive),27 µM (inactive),22.4 µM (inactive),32.1 µM (inactive),32.5 µM (inactive),28.4 µM (inactive),38.3 µM (inactive),38.5 µM (inactive),45.1 µM (inactive),33.7 µM (inactive),38.9 µM (inactive),34.8 µM (inactive),25.9 µM (inactive),34.9 µM (inactive)
CN(Cc1cnc2nc(N)nc(N)c2n1)c1ccc(C(=O)NCCCS(=O)(=O)O)cc1,> 100 µM (inactive),37.6 µM (inactive),> 100 µM (inactive),> 100 µM (inactive),> 100 µM (inactive),> 100 µM (inactive),> 100 µM (inactive),> 100 µM (inactive),> 100 µM (inactive),83.9 µM (inactive),> 100 µM (inactive),> 100 µM (inactive),> 100 µM (inactive),> 100 µM (inactive),> 100 µM (inactive),> 100 µM (inactive),> 100 µM (inactive),> 100 µM (inactive),> 100 µM (inactive),> 100 µM (inactive)
Oc1cccc2c1[nH]c1c(C3=C[C@@]4(O)CC/C=C\CCCCN5CC[C@@H]3[C@]3(CC6/C=C\CCCCN6[C@H]34)C5)nccc12 (stereo not given in full),0.966 µM (active),0.578 µM (active),1.1 µM (active),0.787 µM (active),0.796 µM (active),1.08 µM (active),1.47 µM (inactive),1.94 µM (inactive),2.21 µM (inactive),1.38 µM (inactive),2.04 µM (inactive),1.63 µM (inactive),2.69 µM (inactive),1.02 µM (active),1.43 µM (inactive),2.24 µM (inactive),1.71 µM (inactive),0.798 µM (active),0.64 µM (active),0.607 µM (active)
